Data published in ChEMBL document CHEMBL4004820 (J Med Chem, 2017).

Target: Matrix protein 2 (Influenza A virus (A/Udorn/307/1972(H3N2)), UniProt P0DOF8, S31N)

Row | Compound | Kd
1 | CCC1(N)C2CC3CC(C2)CC1C3 (centres undefined) | Not Active
2 | NC1C2CC3CC(C2)CC1C3 (centres undefined) | Not Active
3 | CC1(N)C2CC3CC(C2)CC1C3 (centres undefined) | Not Active
4 | NC12CC3CC(CC(C3)C1)C2 [AMANTADINE] | Not Active
